For the test, the system named is CSE knockout mice. The test can be described thus: Inducible persistent AF (AF lasting more than 90 seconds after induction) in CSE knockout mice. Format: in vivo. The note with it: for risk of inducible persistent AF: 200 ug/kg retro-orbitally (i.e. I.V.) for three days. An excerpt: Homocysteine induced reactive oxygen species reduces the ability of eNOS to properly function in generating nitric oxide (NO).
FIGS. 11 to 12B show mouse Mouse Electrophysiology and AF induction in mice and persistent AF and short run or non-persistent AF.

Regarding `C=CCSSSCC=C` [DATS, diallyl trisulfide], the “risk of inducible persistent AF” value by setting is: (CSE knock out male mice) “reduced to near wild type levels”; (female CSE knock out mice) “no noticeable risk reduction”.

Take `[N]=O` [NO, nitric oxide]: under “female CSE KO mice”, the “persistent AF (FIGS. 26A, 26B, 34A to 35B)” value is on record as “Reduced”.

As for `O=NO` [sodium nitrite], for the setting “female CSE KO mice”, the “persistent AF (FIGS. 26A, 26B, 34A to 35B)” value is listed as “dramatically reduces”. Further, the “AF (electro cardio rhythms, FIGS. 25A and 25B)” value (female CSE KO mice, nitrite treated vs PBS) is reported as “reduced”. Besides, the “incidence of inducible persistent AF” value (female CSE knockout mice, 165 ug/kg intraperitoneal for 3 days) is “decrease”.

The values are drawn from patent US11116731B2, “Hydrogen sulfide and/or nitrite in the treatment and prevention of atrial fibrillation” (Board of Supervisors of Louisiana State University and …, priority 2017, dated 2021).
